The subject of assay [1] is senescent TP53 knockout MCF10a cells. The experiment in a line: ES2 viability in TP53 knockout vs wildtype MCF10a cells. As to conditions: range of ES2 treatments. It counts as cell-based, human. As for the experimental part:
A375-Luc/iRFP cells were purchased from Creative Biogene (CSC-RR0254). B16-F10 cells were purchased (ATCC Cat# CRL-6475, RRID:CVCL_0159). MCF7 cells were purchased (ATCC Cat# HTB-22, RRID:CVCL_0031). IMR90 cells were purchased (ATCC Cat# CCL-186, RRID:CVCL_0347). A375-Luc/iRFP, B16-F10, IMR90, and MCF7 cells were cultured in Dulbecco's Modified Eagle Medium (DMEM), 10% fetal bovine serum (FBS) and 1X penicillin-streptomycin (PS). HCT-116 cells were purchased (ATCC Cat# CCL-247, RRID:CVCL_0291). DLD-1 cells were purchased (ATCC Cat# CCL-221, RRID:CVCL_0248). SW480 cells were purchased (ATCC Cat# CCL-228, RRID:CVCL_0546). HCT-116, DLD-1, and SW480 cells were cultured in Roswell Park Memorial Institute 1640 (RPMI 1640), 10% FBS, and 1X PS. […]
Cell lines were treated with chemotherapy, doxorubicin (Sigma, Cat. No. 2252) to induce senescence (200 nM for HCT116, 100 nM for B16-F10 and MCF7, 50 nM for SW480 and DLD-1, 40 nM for A375-Luc/iRFP and MCF10a). […] Cellular proliferation was quantified using the Promega CellTiter 96™ AQueous One Solution Cell Proliferation Assay (MTS) after 2 hours according to the manufacturer's protocol (Promega, G3581). […]

Assay [2] relates to dividing A375 cells. The experiment in a line: Peptide efficacy in culture (MTS), dividing cells. It counts as cell-based, human. The conditions noted are these: peptide replenished daily for two days, MTS, best fit polynomial, read-out: IC50^div, concentration to kill 50% of dividing cells. As for the experimental part: (§1) Cell lines were treated with chemotherapy, doxorubicin (Sigma, Cat. No. 2252) to induce senescence (200 nM for HCT116, 100 nM for B16-F10 and MCF7, 50 nM for SW480 and DLD-1, 40 nM for A375-Luc/iRFP and MCF10a). MCF7 cells were treated with CDK4/6 inhibitor, palbociclib (Selleck Chemicals: S1116) to induce senescence (5 µM). A375 cells were treated with Braf inhibitor, Dabrafenib (Selleck Chemicals: S2807), to induce senescence (10 µM). Peptide efficacy experiments were performed by seeding 10,000 – 20,000 cells in a 96-well plate. The cells were given doxorubicin twice to make the cells senescent. After removal of doxorubicin, the plate was treated with varying concentrations of peptide. The peptide was replenished daily for two days. Cellular proliferation was quantified using the Promega CellTiter 96™ AQueous One Solution Cell Proliferation Assay (MTS) after 2 hours according to the manufacturer's protocol (Promega, G3581). To control for the charge of ES2, ProteoJuice (Millipore Sigma, 71281) was used to deliver ES2 using the manufacturers protocol, except 50 µL of 2 mM ES2 was mixed with 25 µL of ProteoJuice. Varying concentrations of the mixture were administered to A375 cells along with a control of only ProteoJuice.

In assay [3] the test system is A375, B16F10, HCT116, MCF7, IMR90 and MCF10A cells. The experiment in a line: ES2 viability (MTS) in cell line panel, senescent vs dividing. The format is cell-based. On the procedure: as §1
Assay [4] has as its system dividing A375 cells. Nature of the assay: Orthotopic xenograft of dividing luciferase A375 cells, radiance. The format is in vivo, mouse. As to conditions: dividing A375 cells injected orthotopically, locally injected twice, imaged one day later; ES2 n=5, saline n=9.
The subject of the next assay is A375 cells. The experiment in a line: Annexin V live cell stain, kinetics of apoptosis. It counts as cell-based, human. The conditions noted are these: 8 µM ES2, A375 cells, linear regression comparison p<0.001.
The target of another assay is GFP (Aequorea victoria, UniProt P42212). Nature of the assay: Bio-layer Interferometry, GFP. The format is binding. The conditions noted are these: BLI. On the procedure: Bio-layer Interferometry (BLI) measurements were performed on a ForteBio Octet RED384 instrument (Molecular Devices) using ForteBio Data Acquisition software 9.0 and ForteBio biosensors (Molecular Devices) according to the manufacturer's instructions. Kinetic assays were carried out at 30°C using settings of Standard Kinetics Acquisition rate (5.0 Hz, averaging by 20) at a sample plate shake speed of 1,000 rpm. Streptavidin sensors (SA) (ForteBio) equilibrated in PBS were mock loaded (no ligand reference sensor) or loaded with 50 nM of N- terminal biotinylated ES2 peptide (New England Peptide, Inc.) with an approximate response of 1 nm. Ligand loaded SA sensors equilibrated in Kinetics buffer (ForteBio) to establish a baseline, were dipped into wells containing 2-fold dilutions of TP53 (Millipore Sigma Aldrich; Cat# 23-034), FOXO4 (OriGene Technologies; Cat# TP760655) or GFP analytes in kinetics buffer, or buffer alone (reference sample). […] Binding curves were analysed using ForteBio Data Analysis HT 10.0 evaluation software. […] Equilibrium dissociation constants KD which defines the strength of the interaction or affinity was calculated as the kinetic dissociation rate constant divided by the kinetic association rate constant.

The target of a further assay is T1, TP53 (Homo sapiens, UniProt P04637).
T1 construct: purchased Millipore Sigma Aldrich 23-034
Nature of the assay: Bio-layer Interferometry, TP53. The format is binding. As to conditions: BLI. On the procedure: Bio-layer Interferometry (BLI) measurements were performed on a ForteBio Octet RED384 instrument (Molecular Devices) using ForteBio Data Acquisition software 9.0 and ForteBio biosensors (Molecular Devices) according to the manufacturer's instructions. Kinetic assays were carried out at 30°C using settings of Standard Kinetics Acquisition rate (5.0 Hz, averaging by 20) at a sample plate shake speed of 1,000 rpm. Streptavidin sensors (SA) (ForteBio) equilibrated in PBS were mock loaded (no ligand reference sensor) or loaded with 50 nM of N- terminal biotinylated ES2 peptide (New England Peptide, Inc.) with an approximate response of 1 nm. Ligand loaded SA sensors equilibrated in Kinetics buffer (ForteBio) to establish a baseline, were dipped into wells containing 2-fold dilutions of TP53 (Millipore Sigma Aldrich; Cat# 23-034), FOXO4 (OriGene Technologies; Cat# TP760655) or GFP analytes in kinetics buffer, or buffer alone (reference sample). Increasing concentrations of analytes ranging from 6.2 - 200 nM were allowed to associate for 240 secs, followed by 600 sec dissociation step where the TP53/FOXO4-bound sensors were washed with kinetics buffer. Binding curves were analysed using ForteBio Data Analysis HT 10.0 evaluation software. To control for background signal and non-specific binding, raw experimental data were processed by subtracting reference biosensor and reference sample (no ligand). Processed data from at least six different concentrations of analyte binding were globally fit to a 1:1 Langmuir binding model to calculate the association rate constant ka, the dissociation rate constant kd to achieve R^2 > 0.90. Equilibrium dissociation constants KD which defines the strength of the interaction or affinity was calculated as the kinetic dissociation rate constant divided by the kinetic association rate constant.
On the technique in general: In BLI a coated tip is dipped into the sample, and binding shifts an interference pattern.

Entries after “also recorded” stand apart in the source; their conditions may differ. Read-outs that look alike come from different tables or passages of the source. Where no end group is shown, it is not given here.

T1 sequence (P04637 whole entry): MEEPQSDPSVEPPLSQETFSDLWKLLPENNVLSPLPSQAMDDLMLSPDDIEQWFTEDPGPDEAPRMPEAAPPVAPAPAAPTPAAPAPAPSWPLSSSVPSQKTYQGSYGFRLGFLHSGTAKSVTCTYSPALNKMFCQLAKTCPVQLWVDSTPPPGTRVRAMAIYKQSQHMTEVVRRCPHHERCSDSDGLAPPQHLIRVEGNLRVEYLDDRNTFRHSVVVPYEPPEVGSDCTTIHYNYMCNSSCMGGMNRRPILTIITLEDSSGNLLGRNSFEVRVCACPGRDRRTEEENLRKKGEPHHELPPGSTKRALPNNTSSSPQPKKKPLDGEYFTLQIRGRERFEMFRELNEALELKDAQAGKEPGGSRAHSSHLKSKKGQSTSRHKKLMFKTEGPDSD

Regarding “PRKGGRRRRAWGRRRRRRRRRRRRRRAPRKRLTLA [ES2]”, the “ES2 mediated cell death in p53−/− vs p53+/+ senescent MCF10a” value in assay [1] is given as “resistant to ES2 mediated cell death”. Moreover, the IC50 in the assay on dividing A375 cells [2] was about 17000 nM. Moreover, in assay [3] (A375 with Dabrafenib, MCF7 with Palbociclib), the “concentration of ES2 resulting in cell death, doxorubicin vs other pro-senescence agents” value is reported as “no difference in concentration of ES2 resulting in cell death”. Moreover, in assay [3] (doxorubicin-induced senescence, all cell lines), the “IC50 in dividing cells relative to senescent cells” value is “at least 3 times”. In the assay on dividing A375 cells [4], the “elimination of dividing cancer cells in vivo (radiance)” value was “no difference in gain of radiance; also recorded: ineffective at eliminating dividing cancer cells”. Further, the “rate of apoptosis, senescent compared to dividing cells” value with A375 cells is “four-fold”. The Kd – broadly, the constant that tells how readily two partners part at equilibrium – was over 200 nM on GFP (biotinylated ES2 on streptavidin sensors, 30°C, NB – no binding) and 2.3 ± 0.02 nM on TP53 (biotinylated ES2 immobilized on streptavidin sensors, analyte 6.25-200 nM, 30°C, kd/ka). Moreover, the “binding of GFP (in words)” value at GFP (six 2-fold dilutions of GFP starting at 200nM) is given as “minimal binding of GFP; also recorded: no binding was detected”. For the same sequence, the kon at TP53 (1:1 Langmuir binding model, read-out: association rate ka) was found to be 38000 M⁻¹ s⁻¹; at TP53 (biotinylated ES2 immobilized on streptavidin sensors, analyte 6.25-200 nM, 30°C, global 1:1 Langmuir fit, read-out: ka), 38000 M⁻¹ s⁻¹. The sequence further yielded a kd at TP53 (biotinylated ES2 immobilized on streptavidin sensors, analyte 6.25-200 nM, 30°C, global 1:1 Langmuir fit) of 8.7e-05 ± 6.3e-07 s⁻¹.
